Test results from patent US11649460B2, “DNA aptamers, method for inhibiting human galectin-1 and method of treating a mammal in need thereof” (priority 2020, dated 2023).
pIC50: −log10 of the molar value.

Legend:
[1] = system: MCF-7 human breast adenocarcinoma cell line; test: SRB cell proliferation (cytotoxicity) assay, MCF-7; conditions: MCF-7
Source text: (§1) The XLSTAT software was used to determine the IC50, TGI and LC50 values using the four-parameter logistic curve equation.

[2] = system: HT-29 human colorectal adenocarcinoma; test: SRB cell proliferation (cytotoxicity) assay, HT-29; conditions: HT-29
Source text: as §1

[3] = system: SK-BR-3 human breast adenocarcinoma; test: SRB cell proliferation (cytotoxicity) assay, SK-BR-3; conditions: SK-BR-3
Source text: as §1

[4] = system: A-375 human malignant melanoma; test: SRB cell proliferation (cytotoxicity) assay, A-375; conditions: A-375
Source text: as §1

[5] = system: HCT 116 human colorectal carcinoma; test: SRB cell proliferation (cytotoxicity) assay, HCT 116; conditions: HCT 116
Source text: as §1

[6] = system: NHF human foreskin skin fibroblasts; test: SRB cell proliferation (cytotoxicity) assay, NHF; conditions: NHF
Source text: as §1

[7] = system: DU-145 human prostate carcinoma cell line; test: SRB cell proliferation (cytotoxicity) assay, DU-145; conditions: DU-145
Source text: as §1

[8] = target: T1, hGal1-induced hemagglutination of red blood cells (Homo sapiens, UniProt P09382); test: Hemagglutination inhibition assay, native hGal1; type: cell-based; conditions: native Gal1 5 μM
T1 construct: 42; made in house; host or cells: E. coli strain M-15
T1 sequence (P09382 2-135): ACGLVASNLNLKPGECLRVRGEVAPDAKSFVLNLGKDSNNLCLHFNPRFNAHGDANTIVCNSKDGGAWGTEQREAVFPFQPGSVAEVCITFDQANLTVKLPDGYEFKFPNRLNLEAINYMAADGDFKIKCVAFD
Method: Hemagglutination Inhibition Assay
Hemagglutination assay was adopted to assess the capacity of SEQ ID NO.: 4 in inhibiting the lectin cross-linking aggregation of red blood cells (RBC), as previously described. Briefly, using a 96-well microplates appropriate amounts of 5 μM hGal1 were blended with 50 μL of aptamer in an increasing concentrations manner (0-40 μM) in PBS 1× buffer (pH 7.4). Following, 50 μL of 3% purified type B+ RBC in PBS. After 2 h of room temperature incubation, the plate was photographed and the hemagglutination area was estimated by area calculator Sketchandcalc™ and the results were expressed as relative agglutination.

[9] = read-out: IC50: Concentration to inhibit 50% of cell growth

inhibitory effect on galectin-induced hemagglutination [8] | SMILES | TGI: Concentration for total inhibition of cell growth [1] [µM] | TGI: Concentration for total inhibition of cell growth [2] [µM] | pIC50 [2, 9] | TGI: Concentration for total inhibition of cell growth [3] [µM] | pIC50 [3, 9] | TGI: Concentration for total inhibition of cell growth [4] [µM] | TGI: Concentration for total inhibition of cell growth [5] [µM] | TGI: Concentration for total inhibition of cell growth [6] [µM] | pIC50 [6, 9] | TGI: Concentration for total inhibition of cell growth [7] [µM] | pIC50 [7, 9]
 | N.N.[Cl][Pt][Cl] [Cisplatin, reference compound] | 35.869 | 64.977 | > 5.41 | 4.491 | > 5.41 | 7.96 | 15.550 | 16.139 | 5.32 | <3.906 | > 5.41
inhibited hemagglutinating activity | OC[C@H]1O[C@@H](O[C@H]2[C@H](O)[C@@H](O)C(O)O[C@@H]2CO)[C@H](O)[C@@H](O)[C@H]1O (stereo partly drawn) [Lactose, reference compound] |  |  |  |  |  |  |  |  |  |  | 
